Assay results from patent publication US4724233A, “Therapeutical application of phosphonylmethoxyalkyl adenines” (Stichting Rega VZW, priority 1985, dated 1988).
Converted amounts (≈) assume the structure as drawn. Like-named read-outs stand apart in the source and are kept apart here.

Key:
Herpes simplex I (KOS) = assay: inhibition of cytopathic effect of herpes simplex 1 (KOS); type: cell-based, herpes simplex virus type 1; conditions: PRK cells; for EC50: Human alphaherpesvirus 1, read-out: MIC50
Vesicular stomatitis = assay: microbe, parasite or virus in culture; type: cell-based; conditions: read-out: MIC50
vaccinia virus (VV) = type: cell-based; conditions: PRK cells, average of two determinations
Vaccinia = assay: microbe, parasite or virus in culture; type: cell-based; conditions: Orthopoxvirus vaccinia, PRK, read-out: MIC50
Polio 1 = assay: microbe, parasite or virus in culture; type: cell-based; conditions: HeLa, read-out: MIC50
Measles = assay: inhibition of cytopathic effect of measles; type: cell-based; conditions: Measles morbillivirus; Table 3; Vero Flow cells; read-out: MIC50
[1] = system: HSV-1 (strain) TK^- C1101; assay: inhibition of cytopathic effect of HSV-1 TK- strain C1101; type: cell-based, herpes simplex virus type 1; conditions: Human alphaherpesvirus 1, PRK, read-out: MIC50
[2] = antimetabolic activity: incorporation of 3H-labeled precursors into primary rabbit kidney cells; conditions: rabbit, prk cells
HSV-1 (strain) F = assay: inhibition of cytopathic effect of HSV-1 strain F; type: cell-based, herpes simplex virus type 1; conditions: Human alphaherpesvirus 1; Table 4; HSV-1 F, PRK cells; read-out: MIC50
HSV-1 (strain) McIntyre = assay: inhibition of cytopathic effect of HSV-1 strain McIntyre; type: cell-based, herpes simplex virus type 1; conditions: Human alphaherpesvirus 1; Table 4; HSV-1 McIntyre, PRK cells; read-out: MIC50
Herpes simplex 2 (G) = assay: inhibition of cytopathic effect of herpes simplex 2 (G); type: cell-based, herpes simplex virus type 2; conditions: Human alphaherpesvirus 2, PRK, PRK cells, read-out: MIC50
in vitro [3] = conditions: rabbit, prk cells
[4] = system: herpes simplex virus type 1 (HSV-1) (strain KOS); type: cell-based; conditions: PRK cells
HSV-2 (strain) 196 = assay: inhibition of cytopathic effect of HSV-2 strain 196; type: cell-based, herpes simplex virus type 2; conditions: Human alphaherpesvirus 2; Table 4; HSV-2 196, PRK cells; read-out: MIC50
Sindbis = assay: inhibition of cytopathic effect of Sindbis; type: cell-based; conditions: Table 3; Vero B cells; read-out: MIC50
Moloney sarcoma = assay: inhibition of Moloney sarcoma virus; type: cell-based, Moloney mouse sarcoma virus; conditions: Mus musculus; Table 3; MO cells; read-out: MIC50
HSV-2 (strain) Lyons = assay: inhibition of cytopathic effect of HSV-2 strain Lyons; type: cell-based, herpes simplex virus type 2; conditions: Human alphaherpesvirus 2; Table 4; HSV-2 Lyons, PRK cells; read-out: MIC50
Parainfluenza 3 = assay: inhibition of cytopathic effect of parainfluenza 3; type: cell-based; conditions: Table 3; Vero B cells; read-out: MIC50
Reovirus = assay: inhibition of cytopathic effect of reovirus; type: cell-based; conditions: Reovirus sp.; Table 3; Vero B cells; read-out: MIC50
Coxsackie B4 = assay: inhibition of cytopathic effect of Coxsackie B4; type: cell-based; conditions: Enterovirus B, B4; Table 3; Vero B, HeLa cells; read-out: MIC50
in vitro [5] = conditions: rabbit, prk cells; remark: listed apart in the source
[6] = system: HSV-1 (strain) TK^- B2006; assay: inhibition of cytopathic effect of HSV-1 TK- strain B2006; type: cell-based, herpes simplex virus type 1; conditions: Human alphaherpesvirus 1, PRK, read-out: MIC50
VZV (strain) TK^- YSR = assay: microbe, parasite or virus in culture; type: cell-based, varicella-zoster virus; conditions: Human alphaherpesvirus 3, HEL, read-out: MIC50
TK^- herpes viruses = conditions: Prusoff et al.; cited from earlier work
VZV (strain) OKa = assay: microbe, parasite or virus in culture; type: cell-based, varicella-zoster virus; conditions: Human alphaherpesvirus 3, HEL, read-out: MIC50
VZV (strain) YS = assay: microbe, parasite or virus in culture; type: cell-based, varicella-zoster virus; conditions: Human alphaherpesvirus 3, Table 5, HEL cells, read-out: MIC50
CMV (strain) Davis = assay: inhibition of CMV strain Davis in HEL cells; type: cell-based, cytomegalovirus; conditions: Human betaherpesvirus 5, Table 5, read-out: MIC50
VZV (strain) TK^- 07-1 = assay: microbe, parasite or virus in culture; type: cell-based, varicella-zoster virus; conditions: Human alphaherpesvirus 3, HEL, read-out: MIC50
CMV (strain) AD 169 = assay: inhibition of CMV strain AD 169 in HEL cells; type: cell-based, cytomegalovirus; conditions: Human betaherpesvirus 5; Table 5; CMV AD 169, HEL cells; read-out: MIC50
[7] = 48 h, 10 μg/ml (value in parentheses)
[8] = ID50 Leu incorporation, (3H-4,5)Leu
[9] = ID50 Urd incorporation, (3H-5)Urd
[10] = ID50 dThd incorporation, (3H-methyl) dThd
[11] = ID50 dUrd incorporation, (3H-1',2')dUrd

Row | SMILES | EC50 (Herpes simplex I (KOS); Table 3) [µg/mL] | MIC50 (Herpes simplex I (KOS); Table 4, HSV-1 KOS) [µg/mL] | EC50 (Vesicular stomatitis) [µg/mL] | Titer of VV (vaccinia virus (VV); 48 h, 100 μg/ml) [log10 PFU/ml] | EC50 (Vaccinia) [µg/mL] | EC50 (Polio 1) [µg/mL] | EC50 (Measles) [µg/mL] | EC50 [1] [µg/mL] | IC50 [2, 8] [µg/mL] | EC50 (HSV-1 (strain) F) [µg/mL] | EC50 (HSV-1 (strain) McIntyre) [µg/mL] | EC50 (Herpes simplex 2 (G); Table 3) [µg/mL] | EC50 (Herpes simplex 2 (G); Table 4, HSV-2 G) [µg/mL] | MCC at 72 h (in vitro [3]) [µg/mL] | EC50 (HSV-2 (strain) 196) [µg/mL] | EC50 (Sindbis) [µg/mL] | EC50 (HSV-2 (strain) Lyons) [µg/mL] | EC50 (Parainfluenza 3) [µg/mL] | EC50 (Reovirus) [µg/mL] | EC50 (Coxsackie B4) [µg/mL] | also measured
1 | Nc1ncnc2c1ncn2CC(O)COCP(=O)(O)O (racemic) [No. 2, (RS)-9-(2-hydroxy-3-phosphonylmethoxypropyl)-adenine] | 2 to 10 (≈ 6.6 to 33 µM) | 2 to 10 | > 400 | 2.0 | 0.3 to 1 (≈ 0.989 to 3.3 µM) | > 400 | > 20 | 7 (≈ 23.1 µM) | > 400 | 10 to 15 (≈ 33 to 49.5 µM) | 10 to 15 (≈ 33 to 49.5 µM) | 10 to 15 (≈ 33 to 49.5 µM) | 10 to 15 (≈ 33 to 49.5 µM) | > 400 | 10 to 15 (≈ 33 to 49.5 µM) | > 400 | 10 to 15 (≈ 33 to 49.5 µM) | > 200 | > 200 | > 400 | Titer of VV (vaccinia virus (VV); 1 h, 100 μg/ml): 2.2 log10 PFU/ml; Titer of VV (vaccinia virus (VV); 24 h, 100 μg/ml): 2.2 log10 PFU/ml; Titer of VV (vaccinia virus (VV); [7]): < 1.3 log10 PFU/ml; Titer of VV (vaccinia virus (VV); 72 h, 100 μg/ml): 1.8 log10 PFU/ml; IC50 [2, 9]: > 400 µg/mL; IC50 [2, 10]: 280 µg/mL (≈ 923 µM); IC50 [2, 11]: > 400 µg/mL; Titer of HSV-1 ([4]; 24 h, 100 μg/ml): < 1.3 log10 PFU/ml; Titer of HSV-1 [4, 7]: < 6.0 log10 PFU/ml; Titer of HSV-1 ([4]; 48 h, 100 μg/ml): < 1.3 log10 PFU/ml; EC50 (Moloney sarcoma): 4.5 µg/mL (≈ 14.8 µM)
2 | Nc1ncnc2c1ncn2CCOCP(=O)(O)O [No. 6, 9-(2-phosphonylmethoxyethyl)adenine] | 15 to 30 (≈ 54.9 to 110 µM) | 15 to 30 | > 400 | 5.54 | 300 (≈ 1100 µM) | > 400 | > 400 | 7 (≈ 25.6 µM) |  |  | 30 (≈ 110 µM) | 7 (≈ 25.6 µM) |  | ≥ 200 | 15 (≈ 54.9 µM) | > 400 | 15 (≈ 54.9 µM) | > 400 | > 400 | > 200 | IC50 (in vitro [5]; ID50 Leu incorporation): > 400 µg/mL; IC50 (in vitro [5]; ID50 Urd incorporation): > 400 µg/mL; IC50 (in vitro [5]; ID50 dThd incorporation): 242 µg/mL (≈ 886 µM); IC50 (in vitro [5]; ID50 dUrd incorporation): 114 µg/mL (≈ 417 µM); EC50 [6]: 3 µg/mL (≈ 11 µM); Titer of HSV-1 ([4]; 24 h, 100 μg/ml): < 1.3 log10 PFU/ml; Titer of HSV-1 [4, 7]: 6.36 log10 PFU/ml; Titer of HSV-1 ([4]; 48 h, 100 μg/ml): 3.34 log10 PFU/ml; EC50 (Moloney sarcoma): 0.67 µg/mL (≈ 2.45 µM)
3 | Nc1ncnc2c1ncn2C[C@H](O)CO [(S)-DHPA, 9-(S)-(2,3-dihydroxypropyl)adenine, reference compound] | > 400 |  | 20 (≈ 95.6 µM) | 5.2 | 50 (≈ 239 µM) | > 400 | 20 (≈ 95.6 µM) |  | > 400 |  |  | > 400 |  | > 400 |  | > 400 |  | 25 (≈ 119 µM) | 100 (≈ 478 µM) | 130 (≈ 621 µM) | Titer of VV (vaccinia virus (VV); 1 h, 100 μg/ml): 2.0 log10 PFU/ml; Titer of VV (vaccinia virus (VV); 24 h, 100 μg/ml): 4.7 log10 PFU/ml; Titer of VV (vaccinia virus (VV); 72 h, 100 μg/ml): 5.5 log10 PFU/ml; IC50 [2, 9]: > 400 µg/mL; IC50 [2, 10]: 350 µg/mL (≈ 1670 µM); IC50 [2, 11]: > 400 µg/mL; Titer of HSV-1 ([4]; 1 h, 100 μg/ml): 1.3 log10 PFU/ml; Titer of HSV-1 ([4]; 24 h, 100 μg/ml): 6.5 log10 PFU/ml; Titer of HSV-1 ([4]; 48 h, 100 μg/ml): 6.9 log10 PFU/ml; Titer of HSV-1 ([4]; 72 h, 100 μg/ml): 6.9 log10 PFU/ml; EC50 (Moloney sarcoma): > 200 µg/mL
4 | O=c1[nH]c(=O)n([C@H]2C[C@H](O)[C@@H](CO)O2)cc1I [IDU, 5-iodo-2'-deoxyuridine, reference compound] |  |  |  |  |  |  |  |  |  | 0.2 (≈ 0.565 µM) | 0.2 (≈ 0.565 µM) |  | 0.2 (≈ 0.565 µM) |  | 2 (≈ 5.65 µM) |  | 0.2 (≈ 0.565 µM) |  |  |  | EC50 (Herpes simplex I (KOS); Table 4, HSV-1 KOS): 0.2 µg/mL (≈ 0.565 µM)
5 | Nc1ncnc2c1ncn2C[C@H](O)COCP(=O)(O)O (racemic) [No. 3, (RS)-9-(2-hydroxy-3-phosphonylmethoxypropyl)-adenine] | 70 to 150 (≈ 231 to 495 µM) | 70 to 150 | > 400 |  | 15 to 30 (≈ 49.5 to 98.9 µM) | > 400 | > 400 | 30 to 40 (≈ 98.9 to 132 µM) | > 400 | 70 to 150 (≈ 231 to 495 µM) | 150 (≈ 495 µM) | 30 to 150 (≈ 98.9 to 495 µM) | 30 to 150 (≈ 98.9 to 495 µM) | ≥ 200 | 70 to 150 (≈ 231 to 495 µM) | > 400 | 30 to 100 (≈ 98.9 to 330 µM) | > 400 | > 400 | > 400 | IC50 [2, 9]: > 400 µg/mL; IC50 [2, 10]: > 400 µg/mL; IC50 [2, 11]: > 400 µg/mL
6 | O=c1[nH]c(=O)n([C@H]2C[C@H](O)[C@@H](CO)O2)cc1/C=C/Br [BVDU, (E)-5-(2-bromovinyl)-2'-deoxyuridine, reference compound] |  |  |  |  |  |  |  | 70 (≈ 210 µM) |  | 0.02 (≈ 0.06 µM) | 0.02 (≈ 0.06 µM) |  | 2 (≈ 6 µM) |  | 70 (≈ 210 µM) |  | 7 (≈ 21 µM) |  |  |  | EC50 (Herpes simplex I (KOS); Table 4, HSV-1 KOS): 0.02 µg/mL (≈ 0.06 µM); EC50 (VZV (strain) TK^- YSR): > 400 µg/mL; activity against TK^- herpes viruses (in words) (TK^- herpes viruses): inactive; EC50 (VZV (strain) OKa): 0.007 µg/mL (≈ 0.021 µM); EC50 [6]: > 200 µg/mL; EC50 (VZV (strain) YS): 0.006 µg/mL (≈ 0.018 µM); EC50 (CMV (strain) Davis): 300 µg/mL (≈ 901 µM); EC50 (VZV (strain) TK^- 07-1): > 400 µg/mL; EC50 (CMV (strain) AD 169): 200 µg/mL (≈ 600 µM)
